Source: ChEMBL document CHEMBL5042544, “Discovery of a Potent and Selective ATAD2 Bromodomain Inhibitor with Antiproliferative Activity in Breast Cancer Models” (J Med Chem, 2022)

What was measured:
[1] = biological target: Bromodomain-containing protein 3 (Homo sapiens, UniProt Q15059); experiment: Binding affinity to human BRD3 bromodomain 1 assessed as residual activity at 300 nM by BROMOscan method relative to control
[2] = biological target: T1, ATPase family AAA domain-containing protein 2 (Homo sapiens, UniProt Q6PL18); experiment: Inhibition of GST-ATAD2 BD (951 to 1132 residues) (unknown origin) expressed in Escherichia coli BL21 (DE3) and biotinylated tetra-acetylated histone H4 peptides as substrate incubated for 30 mins by TR-FRET assay
T1 sequence (Q6PL18 whole entry): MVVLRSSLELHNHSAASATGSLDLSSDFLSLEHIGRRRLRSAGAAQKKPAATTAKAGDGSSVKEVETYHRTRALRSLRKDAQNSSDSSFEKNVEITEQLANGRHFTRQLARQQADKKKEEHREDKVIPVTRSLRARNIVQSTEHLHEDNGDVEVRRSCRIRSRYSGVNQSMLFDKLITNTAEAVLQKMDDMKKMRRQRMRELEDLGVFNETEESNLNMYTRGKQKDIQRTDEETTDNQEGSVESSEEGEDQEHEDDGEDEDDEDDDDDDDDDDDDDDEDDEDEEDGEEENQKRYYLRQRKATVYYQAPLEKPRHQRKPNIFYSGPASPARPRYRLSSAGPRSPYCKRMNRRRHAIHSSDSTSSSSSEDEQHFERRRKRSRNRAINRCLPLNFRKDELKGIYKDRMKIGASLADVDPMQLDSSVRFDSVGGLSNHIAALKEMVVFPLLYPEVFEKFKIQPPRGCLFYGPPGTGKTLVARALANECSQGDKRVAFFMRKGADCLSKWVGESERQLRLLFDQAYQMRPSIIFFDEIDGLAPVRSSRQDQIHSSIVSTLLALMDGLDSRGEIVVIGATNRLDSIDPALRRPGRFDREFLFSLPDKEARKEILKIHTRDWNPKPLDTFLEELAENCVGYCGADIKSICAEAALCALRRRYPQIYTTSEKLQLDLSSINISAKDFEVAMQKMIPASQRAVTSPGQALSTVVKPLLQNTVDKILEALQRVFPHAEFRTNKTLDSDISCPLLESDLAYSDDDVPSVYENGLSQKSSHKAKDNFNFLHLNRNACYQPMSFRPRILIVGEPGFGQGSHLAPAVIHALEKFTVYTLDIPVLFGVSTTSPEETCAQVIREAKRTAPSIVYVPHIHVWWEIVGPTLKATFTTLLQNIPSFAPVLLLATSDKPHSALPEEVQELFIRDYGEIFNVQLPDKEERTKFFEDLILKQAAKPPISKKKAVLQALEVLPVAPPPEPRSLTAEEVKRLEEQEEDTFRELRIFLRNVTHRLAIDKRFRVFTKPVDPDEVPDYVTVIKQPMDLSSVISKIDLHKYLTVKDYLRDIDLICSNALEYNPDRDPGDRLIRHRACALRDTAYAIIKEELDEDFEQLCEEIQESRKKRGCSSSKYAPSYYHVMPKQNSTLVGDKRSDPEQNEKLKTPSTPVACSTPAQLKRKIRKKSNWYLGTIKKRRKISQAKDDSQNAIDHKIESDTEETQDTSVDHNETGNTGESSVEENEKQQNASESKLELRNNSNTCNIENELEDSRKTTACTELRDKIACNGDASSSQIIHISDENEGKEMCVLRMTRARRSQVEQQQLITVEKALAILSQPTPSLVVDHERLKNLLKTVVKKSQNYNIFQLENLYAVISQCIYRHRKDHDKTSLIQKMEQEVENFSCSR

[3] = biological target: T1, ATPase family AAA domain-containing protein 2; experiment: Inhibition of GST-ATAD2 BD (951 to 1132 residues) (unknown origin) expressed in Escherichia coli BL21 (DE3) and biotinylated tetra-acetylated histone H4 peptides as substrate by TR-FRET artifact assay
[4] = biological target: T1, ATPase family AAA domain-containing protein 2; experiment: Displacement of Halo-tagged Histone H3.3 from Nanoluc-ATAD2A BD (962 to 1119 residues) (unknown origin) transfected in human HCT116 cells incubated for 18 hrs by NanoBRET assay; assay type: cell-based, HCT-116
[5] = biological target: T1, ATPase family AAA domain-containing protein 2; experiment: Displacement of Halo-tagged Histone H3.3 from Nanoluc-ATAD2 BD (962 to 1119 residues) (unknown origin) transfected in human HCT116 cells incubated for 18 hrs in presence of efflux inhibitor reversan by NanoBRET assay; assay type: cell-based, HCT-116
[6] = biological target: T2, Bromodomain-containing protein 4 (Homo sapiens, UniProt O60885); experiment: Displacement of Halo-tagged Histone H3.3 from Nanoluc-BRD4 BD1/BD2 (44 to 460 residues) (unknown origin) transfected in human HCT116 cells incubated for 18 hrs by NanoBRET assay; assay type: cell-based, HCT-116
[7] = organism: Homo sapiens; experiment: Binding affinity to human ATAD2A assessed as residual activity at 300 nM by BROMOscan method relative to control
[8] = biological target: Bromodomain-containing protein 1 (Homo sapiens) (UniProt O95696); experiment: Binding affinity to human BRD1 bromodomain assessed as residual activity at 300 nM by BROMOscan method relative to control
Bromodomain-containing protein 1 (Homo sapiens), sequence (O95696 whole entry): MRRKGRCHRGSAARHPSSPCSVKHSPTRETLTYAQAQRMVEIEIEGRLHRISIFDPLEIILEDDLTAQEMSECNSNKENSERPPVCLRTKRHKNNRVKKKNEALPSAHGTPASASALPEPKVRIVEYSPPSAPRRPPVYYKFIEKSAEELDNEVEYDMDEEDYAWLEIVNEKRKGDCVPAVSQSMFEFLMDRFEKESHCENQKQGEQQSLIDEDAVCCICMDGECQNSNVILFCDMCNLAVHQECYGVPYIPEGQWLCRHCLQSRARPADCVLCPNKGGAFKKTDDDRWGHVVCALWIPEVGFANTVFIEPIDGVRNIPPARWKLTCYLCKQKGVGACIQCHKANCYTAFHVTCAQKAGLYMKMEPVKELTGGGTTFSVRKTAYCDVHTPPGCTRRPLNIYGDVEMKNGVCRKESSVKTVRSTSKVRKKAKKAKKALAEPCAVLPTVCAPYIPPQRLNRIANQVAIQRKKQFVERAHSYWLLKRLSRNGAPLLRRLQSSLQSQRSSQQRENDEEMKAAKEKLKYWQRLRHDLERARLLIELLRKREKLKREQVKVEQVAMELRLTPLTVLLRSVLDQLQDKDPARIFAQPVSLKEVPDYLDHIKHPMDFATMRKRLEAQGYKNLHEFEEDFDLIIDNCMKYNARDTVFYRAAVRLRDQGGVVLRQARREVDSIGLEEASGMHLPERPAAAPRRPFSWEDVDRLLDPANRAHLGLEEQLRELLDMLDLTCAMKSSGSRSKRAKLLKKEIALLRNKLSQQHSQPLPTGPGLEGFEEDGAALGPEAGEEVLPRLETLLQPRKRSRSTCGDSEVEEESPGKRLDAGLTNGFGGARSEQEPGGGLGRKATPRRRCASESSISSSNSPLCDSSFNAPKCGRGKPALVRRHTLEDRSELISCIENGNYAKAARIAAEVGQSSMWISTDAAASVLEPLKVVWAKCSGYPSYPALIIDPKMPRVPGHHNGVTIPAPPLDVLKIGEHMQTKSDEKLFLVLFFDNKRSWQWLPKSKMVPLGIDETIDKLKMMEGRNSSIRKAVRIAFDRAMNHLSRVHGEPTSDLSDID

[9] = biological target: Bromodomain-containing protein 2 (Homo sapiens, UniProt P25440); experiment: Binding affinity to human BRD2 bromodomain 2 assessed as residual activity at 300 nM by BROMOscan method relative to control
Bromodomain-containing protein 2, sequence (P25440 whole entry, looked up): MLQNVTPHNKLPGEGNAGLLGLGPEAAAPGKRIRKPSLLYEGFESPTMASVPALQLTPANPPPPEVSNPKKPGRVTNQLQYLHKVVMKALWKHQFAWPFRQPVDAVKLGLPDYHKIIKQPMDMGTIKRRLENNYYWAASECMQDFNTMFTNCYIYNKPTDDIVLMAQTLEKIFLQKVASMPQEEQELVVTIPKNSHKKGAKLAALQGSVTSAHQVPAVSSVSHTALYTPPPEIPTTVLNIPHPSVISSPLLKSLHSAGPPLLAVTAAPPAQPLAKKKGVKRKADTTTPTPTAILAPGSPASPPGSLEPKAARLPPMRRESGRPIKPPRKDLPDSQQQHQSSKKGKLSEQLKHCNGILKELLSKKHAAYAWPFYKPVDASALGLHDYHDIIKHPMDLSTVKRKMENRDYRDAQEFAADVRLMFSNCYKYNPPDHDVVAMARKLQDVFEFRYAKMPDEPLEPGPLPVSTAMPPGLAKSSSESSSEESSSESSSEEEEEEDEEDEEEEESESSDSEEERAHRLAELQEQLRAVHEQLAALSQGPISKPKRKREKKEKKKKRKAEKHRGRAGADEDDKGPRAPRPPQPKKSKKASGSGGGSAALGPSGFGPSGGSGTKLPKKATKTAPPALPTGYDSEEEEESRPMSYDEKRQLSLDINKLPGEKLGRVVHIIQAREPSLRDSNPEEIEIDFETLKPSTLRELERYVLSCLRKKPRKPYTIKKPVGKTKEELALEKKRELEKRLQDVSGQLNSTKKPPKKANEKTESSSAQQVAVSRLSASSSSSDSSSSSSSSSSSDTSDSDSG

[10] = biological target: T2, Bromodomain-containing protein 4; experiment: Binding affinity to human BRD4 bromodomain 2 assessed as residual activity at 300 nM by BROMOscan method relative to control
[11] = Binding affinity to human ATAD2A assessed as dissociation constant by BROMOscan method
[12] = biological target: ATPase family AAA domain-containing protein 2B (Homo sapiens, UniProt Q9ULI0); experiment: Binding affinity to human ATAD2B bromodomain assessed as dissociation constant by BROMOscan method
[13] = biological target: Bromodomain-containing protein 9 (Homo sapiens, UniProt Q9H8M2); experiment: Binding affinity to human BRD9 bromodomain by BROMOscan method
Bromodomain-containing protein 9, sequence (Q9H8M2 whole entry): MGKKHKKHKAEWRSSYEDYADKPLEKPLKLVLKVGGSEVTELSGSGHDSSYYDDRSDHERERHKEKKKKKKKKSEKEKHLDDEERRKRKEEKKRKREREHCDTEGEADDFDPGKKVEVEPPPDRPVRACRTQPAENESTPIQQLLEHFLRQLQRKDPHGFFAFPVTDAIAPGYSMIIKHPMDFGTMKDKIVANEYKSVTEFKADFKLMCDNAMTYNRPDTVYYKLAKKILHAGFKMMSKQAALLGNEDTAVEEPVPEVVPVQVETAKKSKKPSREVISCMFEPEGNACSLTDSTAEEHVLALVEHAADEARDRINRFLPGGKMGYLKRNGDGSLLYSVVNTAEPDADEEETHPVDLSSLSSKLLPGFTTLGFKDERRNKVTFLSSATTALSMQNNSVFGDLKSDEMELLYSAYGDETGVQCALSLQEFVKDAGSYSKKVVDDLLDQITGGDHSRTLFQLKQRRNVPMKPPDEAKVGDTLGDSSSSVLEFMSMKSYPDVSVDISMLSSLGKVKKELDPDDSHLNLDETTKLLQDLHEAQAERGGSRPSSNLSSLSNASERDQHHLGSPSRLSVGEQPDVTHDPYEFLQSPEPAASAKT

[14] = biological target: SWI/SNF-related matrix-associated actin-dependent regulator of chromatin subfamily A member 2 (Homo sapiens, UniProt P51531); experiment: Binding affinity to human SMARCA2 bromodomain assessed as dissociation constant by BROMOscan method
[15] = biological target: Bromodomain and WD repeat-containing protein 1 (Homo sapiens, UniProt Q9NSI6); experiment: Binding affinity to human WDR9 bromodomain 2 assessed as dissociation constant by BROMOscan method
Bromodomain and WD repeat-containing protein 1, sequence (Q9NSI6 whole entry): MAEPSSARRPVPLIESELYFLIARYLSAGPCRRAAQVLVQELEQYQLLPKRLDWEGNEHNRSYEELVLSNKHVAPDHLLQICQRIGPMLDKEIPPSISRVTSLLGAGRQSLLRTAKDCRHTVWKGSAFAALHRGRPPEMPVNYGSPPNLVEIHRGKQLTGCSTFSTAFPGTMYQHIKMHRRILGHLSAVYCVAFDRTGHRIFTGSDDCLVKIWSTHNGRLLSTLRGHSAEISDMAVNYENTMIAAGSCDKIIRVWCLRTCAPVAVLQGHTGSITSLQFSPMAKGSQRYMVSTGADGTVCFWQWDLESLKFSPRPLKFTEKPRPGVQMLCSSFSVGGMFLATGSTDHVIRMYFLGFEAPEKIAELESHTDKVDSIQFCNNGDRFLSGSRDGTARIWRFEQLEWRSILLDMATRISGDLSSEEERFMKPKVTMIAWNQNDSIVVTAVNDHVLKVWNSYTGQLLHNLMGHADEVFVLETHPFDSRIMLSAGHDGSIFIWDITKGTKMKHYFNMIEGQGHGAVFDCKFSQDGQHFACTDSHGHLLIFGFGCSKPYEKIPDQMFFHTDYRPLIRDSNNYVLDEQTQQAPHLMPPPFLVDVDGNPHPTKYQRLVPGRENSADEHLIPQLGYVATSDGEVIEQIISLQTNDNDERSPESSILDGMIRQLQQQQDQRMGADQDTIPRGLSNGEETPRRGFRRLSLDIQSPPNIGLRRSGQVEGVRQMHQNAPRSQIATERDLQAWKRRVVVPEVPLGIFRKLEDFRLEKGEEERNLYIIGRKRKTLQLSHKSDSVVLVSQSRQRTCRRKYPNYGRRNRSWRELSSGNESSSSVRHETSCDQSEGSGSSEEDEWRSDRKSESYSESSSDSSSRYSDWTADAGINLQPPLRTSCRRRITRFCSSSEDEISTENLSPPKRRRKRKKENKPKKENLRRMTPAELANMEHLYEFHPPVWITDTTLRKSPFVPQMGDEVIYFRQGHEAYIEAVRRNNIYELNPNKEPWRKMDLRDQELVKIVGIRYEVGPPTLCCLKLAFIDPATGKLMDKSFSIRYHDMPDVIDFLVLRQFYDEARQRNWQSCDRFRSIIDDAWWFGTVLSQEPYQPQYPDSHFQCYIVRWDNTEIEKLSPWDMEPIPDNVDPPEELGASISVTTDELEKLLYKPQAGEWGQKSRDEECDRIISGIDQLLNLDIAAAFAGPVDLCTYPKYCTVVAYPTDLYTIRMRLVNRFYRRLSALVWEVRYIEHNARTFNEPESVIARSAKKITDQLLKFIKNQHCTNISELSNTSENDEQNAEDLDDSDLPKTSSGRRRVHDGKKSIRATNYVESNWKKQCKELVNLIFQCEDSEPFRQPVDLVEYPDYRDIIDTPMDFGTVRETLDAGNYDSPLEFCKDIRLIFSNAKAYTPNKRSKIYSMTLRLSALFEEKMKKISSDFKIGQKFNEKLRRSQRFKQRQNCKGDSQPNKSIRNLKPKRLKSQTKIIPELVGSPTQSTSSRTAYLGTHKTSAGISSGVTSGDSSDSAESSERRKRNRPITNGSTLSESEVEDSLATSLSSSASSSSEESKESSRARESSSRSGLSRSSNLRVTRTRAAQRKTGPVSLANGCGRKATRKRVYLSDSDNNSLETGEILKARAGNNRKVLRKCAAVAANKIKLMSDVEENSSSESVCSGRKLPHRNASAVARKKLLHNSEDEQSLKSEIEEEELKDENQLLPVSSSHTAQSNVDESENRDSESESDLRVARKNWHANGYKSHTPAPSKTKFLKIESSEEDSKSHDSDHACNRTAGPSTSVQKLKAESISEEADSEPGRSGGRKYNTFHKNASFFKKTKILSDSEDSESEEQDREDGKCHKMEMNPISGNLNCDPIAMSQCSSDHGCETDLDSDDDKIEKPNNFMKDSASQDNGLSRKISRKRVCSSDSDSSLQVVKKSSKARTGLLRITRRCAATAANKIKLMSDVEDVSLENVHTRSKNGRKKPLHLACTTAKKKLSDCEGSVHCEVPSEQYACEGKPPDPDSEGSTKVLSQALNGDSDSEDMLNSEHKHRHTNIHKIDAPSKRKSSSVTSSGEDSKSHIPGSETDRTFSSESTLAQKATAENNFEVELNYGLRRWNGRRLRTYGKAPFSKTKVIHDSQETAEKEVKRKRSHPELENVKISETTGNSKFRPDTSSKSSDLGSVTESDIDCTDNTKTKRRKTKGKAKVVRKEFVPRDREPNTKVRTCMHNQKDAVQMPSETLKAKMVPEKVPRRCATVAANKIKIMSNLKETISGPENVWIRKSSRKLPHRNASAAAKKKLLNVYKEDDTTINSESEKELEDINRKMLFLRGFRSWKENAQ

[16] = system: SK-BR-3; experiment: Antiproliferative activity against human SK-BR-3 cells expressing ATAD2 assessed as inhibition of colony formation at 0.01 to 10 uM measured after 14 to 21 days by AlamarBlue staining based colony formation assay; assay type: functional, cell-based; conditions: dose 0.01-10 µM, time 14-21 day
[17] = organism: Homo sapiens; experiment: Selectivity ratio of IC50 for Inhibition of […] GST-ATAD2 BD (981 to 1108 residues) (unknown origin) expressed in Escherichia coli BL21 (DE3) to IC50 for Halo-tagged Histone H3.3 from Nanoluc-ATAD2 BD ([…] residues) (unknown origin) transfected in human HCT116 cells
[18] = system: EVSA-T; experiment: Antiproliferative activity against human EVSA-T cells expressing ATAD2 assessed as inhibition of colony formation at 0.01 to 10 uM measured after 14 to 21 days by AlamarBlue staining based colony formation assay; assay type: functional, cell-based; conditions: dose 0.01-10 µM, time 14-21 day

For `Cc1nnc2c(NC3CCN(CC(C)(C)F)CC3)cc(C(=O)N3[C@@H]4c5ccccc5C[C@H]3C(=O)N[C@@H]4C(C)C)nn12`, the Activity [1] was 90%, the IC50 [2] was 7 nM and the IC50 [3] was over 25100 nM. The IC50 [4] was 126 nM, the IC50 [5] was 79.4 nM and the IC50 [6] was 10000 nM. It also gave an Activity [7] of 0%, an Activity [8] of 75% and an Activity [9] of 31%. It also gave an Activity [10] of 73%, a pKd [11] of 8.9 and a Kd [12] of 7.94 nM. The Kd [13] was over 316 nM, the Kd [14] was over 3160 nM and the Kd [15] was over 316 nM. The Activity [16] was “Dose-Dependent Effect”, the Ratio IC50 [17] was 20 and the Activity [18] was “Dose-Dependent Effect”.
